These results are taken from patent US6043261A, “Pyrrolodino imidines useful as nitric oxide synthase inhibitors” (G. D. Searle & Co., priority 1998, dated 2000).

The term IC50 denotes the concentration that gives 50% inhibition.

Test [1] has as its target T1, human inducible NOS (hiNOS) (Homo sapiens, UniProt P35228).
T1 construct: made in house; host or cells: insect cells, baculovirus vector
The test can be described thus: Citrulline Assay for Nitric Oxide Synthase, hiNOS. To be noted: recombinant human inducible NOS, 37° C., 15 minutes. Type of test: biochemical. The procedure:
(§1) Citrulline Assay for Nitric Oxide Synthase
(§2) Nitric oxide synthase activity was measured by monitoring the conversion of L-[2,3-3H]-arginine to L-[2,3-3H]-citrulline (1,2). The cDNA for human inducible NOS (hiNOS) was isolated from a lcDNA library made from RNA extracted from a colon sample from a patient with ulcerative colitis; human endothelial constitutive NOS (hecNOS) was isolated from a lcDNA library made from RNA extracted from human umbilical vein endothelial cells (HUVEC); and human neuronal constitutive NOS (hncNOS) was isolated from a lcDNA library made from RNA extracted from human cerebellum from a cadaver. The recombinant enzymes were expressed in insect cells using a baculovirus vector. Enzyme activity was isolated from cell extracts and partially purified by DEAE-Sepharose chromatography (2). […] For constitutive NOS, calmodulin was included at a final concentration of 40-100 nM. Following incubation at 37° C. for 15 minutes, the reaction was terminated by addition of 300 μL cold buffer containing 10 mM EGTA, 100 mM HEPES (pH5.5) and 1.0 mM L-citrulline. The [3H]-citrulline was separated by chromatography on Dowex 50W X-8 cation exchange resin and radioactivity quantified with a liquid scintillation counter.

Another test addresses T2, RAW cell miNOS (Mus musculus, UniProt P29477).
T2 construct: in the presence of LPS to induce NOS; endogenous in cells; host or cells: RAW 264.7 cells, LPS-induced
The test can be described thus: Raw Cell Nitrite Assay. Type of test: cell-based. To be noted: RAW 264.7 cells, LPS-induced, L-arginine 30 μM, nitrite production 1 h at 37° C. The procedure: RAW 264.7 cells are plated to confluency on a 96-well tissue culture plate grown overnight (17 h) in the presence of LPS to induce NOS. […] The media is removed from each well and the cells are washed twice with Krebs-Ringers-Hepes (25 mM, pH 7.4) with 2 mg/ml glucose. The cells are then placed on ice and incubated with 50 μL of buffer containing L-arginine (30 μM) ± inhibitors for 1 h. The assay is initiated by warming the plate to 37° C. in a water bath for 1 h. […] To terminate the cellular assay, the plate of cells is placed on ice and the nitrite-containing buffer removed and analyzed for nitrite using a previously published fluorescent determination for nitrite. All values are the average of triplicate wells and are compared to a background-subtracted induced set of cells (100% value).

For the next test, the system named is Plasma Nitrites/Nitrates. As to the kind of experiment: In Vivo Assay: plasma nitrites/nitrates, Endotoxin in Rat Model. Further details: species or system Rats. Conditions: 10 mg/kg p.o., 1 hour prior to LPS 10 mg/kg i.p., plasma nitrites 5 hours post-treatment. The protocol:
In Vivo Assay Rats were treated with an intraperitoneal injection of 10 mg/kg of endotoxin (LPS) with or without oral administration of the nitric oxide synthase inhibitors administered 1 hour prior to LPS. Plasma nitrites were measured 5 hours post-treatment.

Test [2] addresses T3, human neuronal constitutive NOS (hncNOS) (Homo sapiens, UniProt P29475).
T3 construct: made in house; host or cells: insect cells, baculovirus vector
As to the kind of experiment: biochemical. Conditions: recombinant human neuronal constitutive NOS, 37° C., 15 minutes, calmodulin 40-100 nM. The procedure: as §1, §2

Test [3] concerns the target T4, human endothelial constitutive NOS (hecNOS) (Homo sapiens, UniProt P29474).
T4 construct: made in house; host or cells: insect cells, baculovirus vector
As to the kind of experiment: Citrulline Assay for Nitric Oxide Synthase, hecNOS. Conditions: recombinant human endothelial constitutive NOS, 37° C., 15 minutes, calmodulin 40-100 nM. Format: biochemical. The protocol: as §1, §2

The structures appear in SMILES notation. Counter-ions that a name gives are not always drawn. Like-named read-outs stand apart in the source and are kept apart here. A value given as a limit tells only on which side of the number the result lay.

Consider `Cl.N=C1CCCCC(Cc2ccccc2)N1` (stereo not shown) [Example 5, Hexahydro-7-(phenylmethyl)-1H-azepin-2-imine, Monohydrochloride], for which the concentration for half-maximal inhibition (IC50) in test [1] worked out at 6.2 µM; on RAW cell miNOS (read-out: IC50 RAW cell miNOS), 66 µM; in test [2] (read-out: IC50 hncNOS), 15 µM; in test [3], 792 µM. In the test with Plasma Nitrites/Nitrates, the “% Inhibition of Plasma Nitrites/Nitrates” value was 37%.
Regarding `N=C1CCCCC(Cc2ccccc2)N1` (single isomer, unassigned; (+)) [Example 14, (+)-hexahydro-7-(phenylmethyl)-1H-azepin-2-imine, Monohydrochloride], the half-maximal inhibitory concentration (IC50) in test [1] amounted to 62 µM; on RAW cell miNOS (read-out: IC50 RAW cell miNOS) it was 170 µM; in test [2] (read-out: IC50 hncNOS), 30 µM; in test [3] it was 651 µM.
In the case of `N=C1CCCCC(C/C=C/c2ccccc2)N1` (stereo not shown) [Example 34, Hexahydro-7-(3-phenyl-2-propenyl)-1H-azepin-2-imine, Monohydrochloride], the IC50 in test [1] worked out at 8.1 µM; in test [2] (read-out: IC50 hncNOS) it was 24 µM; in test [3], 183 µM.
Turning to `N=C1CCCCC(Cc2ccccc2)N1` (single isomer, unassigned; (-)) [Example 16, (-)-hexahydro-7-(phenylmethyl)-1H-azepin-2-imine, Monohydrochloride], the concentration for half-maximal inhibition (IC50) in test [1] came to 3.6 µM; at RAW cell miNOS (read-out: IC50 RAW cell miNOS), 1.8 µM; in test [2] (read-out: IC50 hncNOS), 14 µM; in test [3] it was 599 µM.
In the case of `C[C@@H]1CC(=N)N[C@H]1Cc1ccccc1` (relative stereo) [Example 64, (±) (trans) 4-methyl-5-(phenylmethyl)pyrrolidin-2-imine, Monohydrochloride], the half-inhibitory concentration (IC50) in test [1] amounted to 3 µM; on RAW cell miNOS (read-out: IC50 RAW cell miNOS), 5.4 µM; in test [2] (read-out: IC50 hncNOS) it was 8.3 µM; in test [3], 458 µM. Also, in the test with Plasma Nitrites/Nitrates, the “% Inhibition of Plasma Nitrites/Nitrates” value is reported as 35%.
For the molecule `N=C1CCCCC(CC2CO2)N1` (stereo not shown) [Example 21, Hexahydro-7-[(oxiran-2-yl)methyl]-1H-azepin-2-imine, Monohydrochloride], the figures for the half-maximal inhibitory concentration (IC50) (on RAW cell miNOS (read-out: IC50 RAW cell miNOS); in test [2] (read-out: IC50 hncNOS)) were 28 µM and 8.4 µM, respectively.
Turning to `N=C1CCCCC(CCCc2ccccc2)N1` (stereo not shown) [Example 37, Hexahydro-7-(3-phenylpropyl)-1H-azepin-2-imine, Monohydrochloride], the IC50 stood at 19 µM in test [1], 80 µM at RAW cell miNOS (read-out: IC50 RAW cell miNOS), 118 µM in test [2] (read-out: IC50 hncNOS) and 836 µM in test [3].
For the molecule `N=C1CCCC(CC2CCCCC2)N1` (stereo not shown) [Example 95, 6-(cyclohexylmethyl)piperidin-2-imine, Monohydrochloride], the IC50 in test [1] is 5.9 µM; in test [2] (read-out: IC50 hncNOS), 28 µM; in test [3] it was 375 µM.
For the molecule `N=C1CCCCC(CC2CCCCC2)N1` (stereo not shown) [Example 9, 7-(cyclohexylmethyl)hexahydro-1H-azepin-2-imine, Monohydrochloride], the IC50 is 9.7 µM in test [1], above 100 µM on RAW cell miNOS (read-out: IC50 RAW cell miNOS), 74 µM in test [2] (read-out: IC50 hncNOS) and 575 µM in test [3].
Take `NC1=NC(Cc2ccccc2)CCC1` (stereo not shown) [Example 94, 6-(phenylmethyl)piperidin-2-imine, Monohydrochloride]: the half-inhibitory concentration (IC50) was determined as 7.9 µM against RAW cell miNOS (IC50 RAW cell miNOS) and 0.71 µM in test [2] (IC50 hncNOS).
Regarding `N=C1CCCCC(CC2CC(c3ccccc3)=NO2)N1` (stereo not shown) [Example 191, 7-[(4,5-dihydro-3-phenylisoxazolyl-5-yl)methyl]hexahydro-1H-azepine-2-imine, Monotrifluoroacetic Acid Salt], the IC50 on RAW cell miNOS (read-out: IC50 RAW cell miNOS) worked out at 45 µM.
